# Results published in ChEMBL document CHEMBL4765389, “Antimicrobial and anti-inflammatory activities of short dodecapeptides derived from duck cathelicidin: Plausible mechanism of bactericidal action and endotoxin neutralization” (Eur J Med Chem, 2020).
# Calls of active or inactive are those of the source. No cut-off for these calls is given here.
# What was measured:
# Staphylococcus aureus [1] = experiment: Antibacterial activity against methicillin-resistant Staphylococcus aureus CCARM 3090 assessed as fractional inhibitory concentration incubated for 24 hrs in presence of ciprofloxacin by CLSI based broth dilution method; format: functional
# Staphylococcus aureus [2] = experiment: Antibacterial activity against Staphylococcus aureus KCTC 1621 assessed as reduction in bacterial growth incubated for 24 hrs in presence of 20 % serum by CLSI based broth dilution method; format: functional; conditions: read-out: MIC100
# [3] = Antibacterial activity against multidrug-resistant Pseudomonas aeruginosa CCARM 2095 assessed as fractional inhibitory concentration incubated for 24 hrs in presence of chloramphenicol by CLSI based broth dilution method; format: functional
# Escherichia coli [4] = experiment: Antibacterial activity against Escherichia coli KCTC 1682 assessed as reduction in bacterial growth incubated for 24 hrs in presence of 6 uM NH4Cl by CLSI based broth dilution method; format: functional; conditions: read-out: MIC100
# Staphylococcus aureus [5] = experiment: Antibacterial activity against methicillin-resistant Staphylococcus aureus CCARM 3090 assessed as fractional inhibitory concentration incubated for 24 hrs in presence of chloramphenicol by CLSI based broth dilution method; format: functional
# RAW264.7 [6] = experiment: Antiinflammatory activity in mouse RAW264.7 cells assessed as suppression of LPS binding by measuring LPS-FITC aggregation at 10 uM pretreated with LPS for 1 hr followed by compound addition and measured after 30 mins by flowcytometry analysis (reference value: 67.93 %); format: functional; conditions: 0.5 h
# Escherichia coli [7] = experiment: Antibacterial activity against Escherichia coli KCTC 1682 assessed as reduction in bacterial growth incubated for 24 hrs in presence of 4 uM FeCl3 by CLSI based broth dilution method; format: functional; conditions: read-out: MIC100
# Lipopolysaccharide (LPS) [8] = experiment: Inhibition of Escherichia coli O111:B4 LPS aggregation assessed as increase in FITC-LPS dissociation by spectrofluorometry
# [9] = Antibacterial activity against multidrug-resistant Pseudomonas aeruginosa CCARM 2095 assessed as reduction in bacterial growth incubated for 24 hrs in presence of oxacillin by CLSI based broth dilution method; format: functional; conditions: read-out: MIC100
# [10] = Antibacterial activity against multidrug-resistant Pseudomonas aeruginosa CCARM 2095 assessed as fractional inhibitory concentration incubated for 24 hrs in presence of oxacillin by CLSI based broth dilution method; format: functional
# Staphylococcus aureus [11] = experiment: Antibacterial activity against Staphylococcus aureus KCTC 1621 assessed as reduction in bacterial growth incubated for 24 hrs in presence of 150 mM NaCl by CLSI based broth dilution method; format: functional; conditions: read-out: MIC100
# [12] = Antibacterial activity against multidrug-resistant Pseudomonas aeruginosa CCARM 2095 assessed as fractional inhibitory concentration index incubated for 24 hrs in presence of chloramphenicol by CLSI based broth dilution method; format: functional
# [13] = Antibacterial activity against multidrug-resistant Pseudomonas aeruginosa CCARM 2095 assessed as fractional inhibitory concentration incubated for 24 hrs in presence of ciprofloxacin by CLSI based broth dilution method; format: functional
# Staphylococcus aureus [14] = experiment: Antibacterial activity against methicillin-resistant Staphylococcus aureus CCARM 3090 assessed as fractional inhibitory concentration index incubated for 24 hrs in presence of oxacillin by CLSI based broth dilution method; format: functional
# Escherichia coli [15] = experiment: Antibacterial activity against Escherichia coli KCTC 1682 assessed as reduction in bacterial growth incubated for 24 hrs in presence of 1 mM MgCl2 by CLSI based broth dilution method; format: functional; conditions: read-out: MIC100
# Staphylococcus aureus [16] = experiment: Antibacterial activity against methicillin-resistant Staphylococcus aureus CCARM 3090 assessed as reduction in bacterial growth incubated for 24 hrs in presence of oxacillin by CLSI based broth dilution method; format: functional; conditions: read-out: MIC100
# Cell membrane [17] = experiment: Induction of cell membrane permeability in Staphylococcus aureus KCTC 1621 assessed as cytoplasmic membrane depolarization at 2 times MIC by DiSC3-5 dye based spectrofluorometry; format: subcellular
# Staphylococcus aureus [18] = experiment: Antibacterial activity against methicillin-resistant Staphylococcus aureus CCARM 3090 assessed as reduction in bacterial growth incubated for 24 hrs in presence of ciprofloxacin by CLSI based broth dilution method; format: functional; conditions: read-out: MIC100
# [19] = Antibacterial activity against multidrug-resistant Pseudomonas aeruginosa CCARM 2095 assessed as reduction in bacterial growth incubated for 24 hrs in presence of chloramphenicol by CLSI based broth dilution method; format: functional; conditions: read-out: MIC100
# Staphylococcus aureus [20] = experiment: Antibacterial activity against methicillin-resistant Staphylococcus aureus CCARM 3090 assessed as fractional inhibitory concentration index incubated for 24 hrs in presence of ciprofloxacin by CLSI based broth dilution method; format: functional
# Staphylococcus aureus [21] = experiment: Antibacterial activity against methicillin-resistant Staphylococcus aureus CCARM 3090 assessed as fractional inhibitory concentration incubated for 24 hrs in presence of oxacillin by CLSI based broth dilution method; format: functional
# Escherichia coli [22] = experiment: Antibacterial activity against Escherichia coli KCTC 1682 assessed as reduction in bacterial growth incubated for 24 hrs in presence of 150 mM NaCl by CLSI based broth dilution method; format: functional; conditions: read-out: MIC100
# Staphylococcus aureus [23] = experiment: Antibacterial activity against Staphylococcus aureus KCTC 1621 assessed as reduction in bacterial growth incubated for 24 hrs in presence of 4.5 mM KCl by CLSI based broth dilution method; format: functional; conditions: read-out: MIC100
# Staphylococcus aureus [24] = experiment: Antibacterial activity against methicillin-resistant Staphylococcus aureus CCARM 3090 assessed as reduction in bacterial growth incubated for 24 hrs in presence of chloramphenicol by CLSI based broth dilution method; format: functional; conditions: read-out: MIC100
# Lipopolysaccharide (LPS) [25] = experiment: Displacement of BODIPY-TR cadaverine from Escherichia coli O111:B4 LPS at 10 uM measured for 100 sec by spectrofluorometry relative to control
# Staphylococcus aureus [26] = experiment: Antibacterial activity against Staphylococcus aureus KCTC 1621 assessed as reduction in bacterial growth incubated for 24 hrs in presence of 1 mM MgCl2 by CLSI based broth dilution method; format: functional; conditions: read-out: MIC100
# [27] = Antibacterial activity against multidrug-resistant Pseudomonas aeruginosa CCARM 2095 assessed as fractional inhibitory concentration index incubated for 24 hrs in presence of oxacillin by CLSI based broth dilution method; format: functional
# [28] = Antibacterial activity against multidrug-resistant Pseudomonas aeruginosa CCARM 2095 assessed as fractional inhibitory concentration index incubated for 24 hrs in presence of ciprofloxacin by CLSI based broth dilution method; format: functional
# Staphylococcus aureus [29] = experiment: Antibacterial activity against methicillin-resistant Staphylococcus aureus CCARM 3090 assessed as fractional inhibitory concentration index incubated for 24 hrs in presence of chloramphenicol by CLSI based broth dilution method; format: functional
# Cell membrane [30] = experiment: Induction of cell membrane permeability in Escherichia coli KCTC 1682 assessed as […] at 2 times MIC by ONPG dye based spectrophotometry; format: subcellular
# RAW264.7 [31] = experiment: Antiinflammatory activity against mouse RAW264.7 cells assessed as reduction in LPS-induced TNFalpha mRNA expression at 10 uM incubated for 3 hrs by qRT-PCR analysis; format: functional, cell-based
# Staphylococcus aureus [32] = experiment: Antibacterial activity against Staphylococcus aureus KCTC 1621 assessed as reduction in bacterial growth incubated for 24 hrs in presence of 2.5 mM CaCl2 by CLSI based broth dilution method; format: functional; conditions: read-out: MIC100
# Escherichia coli [33] = experiment: Antibacterial activity against Escherichia coli KCTC 1682 assessed as reduction in bacterial growth incubated for 24 hrs in presence of 4.5 mM KCl by CLSI based broth dilution method; format: functional; conditions: read-out: MIC100
# [34] = Antibacterial activity against multidrug-resistant Pseudomonas aeruginosa CCARM 2095 assessed as reduction in bacterial growth incubated for 24 hrs in presence of ciprofloxacin by CLSI based broth dilution method; format: functional; conditions: read-out: MIC100
# Cell membrane [35] = experiment: Induction of cell membrane permeability in Staphylococcus aureus KCTC 1621 assessed as cytoplasmic membrane depolarization at 2 times MIC by SYTOX dye based fluorescence assay; format: subcellular
# Escherichia coli [36] = experiment: Antibacterial activity against Escherichia coli KCTC 1682 assessed as reduction in bacterial growth incubated for 24 hrs in presence of 20 % serum by CLSI based broth dilution method; format: functional; conditions: read-out: MIC100
# RAW264.7 [37] = experiment: Antiinflammatory activity against mouse RAW264.7 cells assessed as reduction in LPS-induced iNOS mRNA expression at 5 uM incubated for 6 hrs by qRT-PCR analysis; format: functional, cell-based
# Escherichia coli [38] = experiment: Antibacterial activity against Escherichia coli KCTC 1682 assessed as reduction in bacterial growth incubated for 24 hrs in presence of 2.5 mM CaCl2 by CLSI based broth dilution method; format: functional; conditions: read-out: MIC100
# Staphylococcus aureus [39] = experiment: Antibacterial activity against Staphylococcus aureus KCTC 1621 assessed as reduction in bacterial growth incubated for 24 hrs in presence of 6 uM NH4Cl by CLSI based broth dilution method; format: functional; conditions: read-out: MIC100
# Staphylococcus aureus [40] = experiment: Antibacterial activity against Staphylococcus aureus KCTC 1621 assessed as reduction in bacterial growth incubated for 24 hrs in presence of 4 uM FeCl3 by CLSI based broth dilution method; format: functional; conditions: read-out: MIC100
# RAW264.7 [41] = experiment: Antiinflammatory activity in mouse RAW264.7 cells assessed as neutralization of LPS binding by measuring LPS-FITC aggregation at 10 uM pretreated with LPS for 1 hr followed by compound addition and measured after 1 hr by flowcytometry analysis (reference value: 48.12 %); format: functional
# Cell membrane [42] = experiment: Induction of cell membrane permeability in Escherichia coli KCTC 1682 assessed as cytoplasmic membrane […] fluorescent signals at 2 times MIC measured after 1 hr by propidium iodide dye based flow cytometry analysis (reference value: 9.8 %); format: subcellular
smiles,measurement,setting,value
CC[C@H](C)[C@H](NC(=O)[C@H](CCCCN)NC(=O)[C@H](CCC(=O)O)NC(=O)[C@H](CCCCN)NC(=O)[C@H](CO)NC(=O)[C@H](CCCCN)NC(=O)[C@H](CCCNC(=N)N)NC(=O)[C@H](Cc1ccccc1)NC(=O)[C@H](Cc1ccccc1)NC(=O)[C@H](CC(=O)O)NC(=O)CNC(=O)[C@H](CC(C)C)NC(=O)[C@@H](N)CC(C)C)C(=O)NCC(=O)N[C@@H](CCCCN)C(=O)N[C@@H](CCC(=O)O)C(=O)N[C@@H](Cc1ccccc1)C(=O)N[C@@H](CCCCN)C(=O)N[C@@H](CCCNC(=N)N)C(=O)N[C@H](C(=O)N[C@H](C(=O)N[C@@H](CCC(N)=O)C(=O)N[C@@H](CCCNC(=N)N)C(=O)N[C@H](C(=O)N[C@@H](CCCCN)C(=O)N[C@@H](CC(=O)O)C(=O)N[C@@H](Cc1ccccc1)C(=O)N[C@@H](CC(C)C)C(=O)N[C@@H](CCCNC(=N)N)C(=O)N[C@@H](CC(N)=O)C(=O)N[C@@H](CC(C)C)C(=O)N[C@H](C(=O)N1CCC[C@H]1C(=O)N[C@@H](CCCNC(=N)N)C(=O)N[C@H](C(=O)N[C@@H](CCC(=O)O)C(=O)N[C@@H](CO)C(=O)O)[C@@H](C)O)C(C)C)[C@@H](C)CC)C(C)C)[C@@H](C)CC [CATHELICIDIN],FIC,Staphylococcus aureus [1],0.5
same,MIC,Staphylococcus aureus [2],8 µM
same,FIC,[3],0.5
same,MIC,Escherichia coli [4],8 µM
same,FIC,Staphylococcus aureus [5],0.5
same,Activity,RAW264.7 [6],25.44%
same,MIC,Escherichia coli [7],16 µM
same,inhibition,Lipopolysaccharide (LPS) [8],Dose-dependent effect
same,MIC,[9],128 µM
same,FIC,[10],0.25
same,MIC,Staphylococcus aureus [11],16 µM
same,fractional inhibitory concentration index (FICI),[12],1
same,FIC,[13],0.25
same,fractional inhibitory concentration index (FICI),Staphylococcus aureus [14],0.75
same,MIC,Escherichia coli [15],16 µM
same,MIC,Staphylococcus aureus [16],128 µM
same,Activity,Cell membrane [17],Active
same,MIC,Staphylococcus aureus [18],256 µM
same,MIC,[19],512 µM
same,fractional inhibitory concentration index (FICI),Staphylococcus aureus [20],1
same,FIC,Staphylococcus aureus [21],0.25
same,MIC,Escherichia coli [22],16 µM
same,MIC,Staphylococcus aureus [23],8 µM
same,MIC,Staphylococcus aureus [24],64 µM
same,Activity,Lipopolysaccharide (LPS) [25],68%
same,MIC,Staphylococcus aureus [26],8 µM
same,fractional inhibitory concentration index (FICI),[27],0.75
same,fractional inhibitory concentration index (FICI),[28],1.25
same,fractional inhibitory concentration index (FICI),Staphylococcus aureus [29],0.75
same,Activity,Cell membrane [30],Active
same,inhibition,RAW264.7 [31],Active
same,MIC,Staphylococcus aureus [32],16 µM
same,MIC,Escherichia coli [33],8 µM
same,MIC,[34],128 µM
same,Activity,Cell membrane [35],Active
same,MIC,Escherichia coli [36],8 µM
same,inhibition,RAW264.7 [37],Active
same,MIC,Escherichia coli [38],16 µM
same,MIC,Staphylococcus aureus [39],8 µM
same,MIC,Staphylococcus aureus [40],16 µM
same,Activity,RAW264.7 [41],13.98%
same,Activity,Cell membrane [42],70.1%
